Test results reported in patent US20250145631A1, “HETEROCYCLIC COMPOUND ACTING ON G12D MUTANT KRAS PROTEIN” (Astellas Pharma Inc., priority 2022, published 2025).

Legend:
[1] = target: T1, KRAS G12D (Homo sapiens, UniProt P01116, G12D); assay: KRAS degradation activity by Cell ELISA in AsPC-1 cells (Test Example 1); type: cell-based; conditions: Cell ELISA; for Dmax: ASPC1, overnight treatment, read-out: Dmax (degradation rate at the concentration showing highest degradation); for DC50: overnight treatment, read-out: DC50 (50% degradation concentration of KRAS)
T1 construct: host or cells: AsPC-1 (human pancreatic cancer line)
T1 sequence (P01116 1-188 isoform P01116-2 G12D): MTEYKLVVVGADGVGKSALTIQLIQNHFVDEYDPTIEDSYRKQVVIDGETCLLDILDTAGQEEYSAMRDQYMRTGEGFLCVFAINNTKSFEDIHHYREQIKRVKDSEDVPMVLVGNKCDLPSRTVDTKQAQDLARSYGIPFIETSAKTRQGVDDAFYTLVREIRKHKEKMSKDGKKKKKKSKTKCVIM
Outline: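 AsPC-1 cells (2.0×10^4/well) treated overnight with compounds at 10 μM–0.3 nM (10 points), then fixed, permeabilised and stained for KRAS G12D (800 nm) and β-actin (700 nm) by in-cell ELISA. KRAS signal normalised to β-actin, DMSO set as 0% and actin-only staining as 100%; DC50 from Sigmoid-Emax regression up to Dmax.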

[2] = test system: human G12D mutant KRAS-positive pancreatic cancer line AsPC-1; assay: Non-anchorage-dependent cell growth inhibitory effect, spheroid 3D culture (Test Example 3); type: cell-based; conditions: ASPC1, 144 h, AsPC-1 spheroid 3D culture, 6 days, CellTiter Glo 2.0, read-out: IC50 (non-anchorage-dependent cell growth inhibition)
Outline: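 AsPC-1 cells grown as spheroids in RPMI 1640 with 10% FBS at 37° C, 5% CO2, then exposed to compounds (10 μM to 0.3 nM final) for 6 days. Viability read by CellTiter Glo 2.0 luminescence. IC50 from Sigmoid-Emax regression with DMSO as 100% and cell-free medium as 0%.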

SMILES | Dmax [1] [%] | DC50 [1] [nM] | IC50 [2] [nM]
Cc1c(F)cc2[nH]ncc2c1-c1c(C2CC2)cc2c(N3C[C@@H]4C[C@H]3CN4)nc(OC3CCOCC3)nc2c1OCc1ccc(C(=O)N2CCN(Cc3ccc4c(c3)n(C)c(=O)n4C3CCC(=O)NC3=O)C[C@@H]2C)cc1 (stereo partly drawn) [Example 8, 3-(5-{[(3S)-4-{4-[({(7M)-6-cyclopropyl-4-[(1S,4S)-2,5-diazabicyclo[2.2.1]heptan-2-yl]-7-(6-fluoro-5-methyl-1H-indazol-4-yl)-2-[(oxan-4-yl)oxy]quinazolin-8-yl}oxy)methyl]benzoyl}-3-methylpiperazin-1-yl]methyl}-3-methyl-2-oxo-2,3-dihydro-TH-benzimidazol-1-yl)piperidine-2,6-dione] | 86 | 13 | 27
CO[C@@H](C)COc1cc(O[C@H]2CCNC2)c2cc(C3CC3)c(-c3c(C)c(F)cc4[nH]ncc34)c(OCc3ccc(C(=O)N4CCN(Cc5ccc6c(c5)n(C)c(=O)n6C5CCC(=O)NC5=O)C[C@@H]4C)cc3)c2n1 (stereo partly drawn) [Example 12, 3-[5-({(3S)-4-[4-({[6-cyclopropyl-7-(6-fluoro-5-methyl-1H-indazol-4-yl)-2-[(2S)-2-methoxypropoxy]-4-{[(3S)-pyrrolidin-3-yl]oxy}quinolin-8-yl]oxy}methyl)benzoyl]-3-methylpiperazin-1-yl}methyl)-3-methyl-2-oxo-2,3-dihydro-1H-benzimidazol-1-yl]piperidine-2,6-dione] | 82 | 18 | 41
CO[C@@H](C)COc1nc(N2C[C@@H]3C[C@H]2CN3)c2cc(C3CC3)c(-c3c(C)c(F)cc4[nH]ncc34)c(OCc3ccc(C(=O)N4CCN(Cc5ccc6c(c5)n(C)c(=O)n6C5CCC(=O)NC5=O)C[C@@H]4C)cc3)c2n1 (stereo partly drawn) [Example 10, 3-(5-{[(3S)-4-{4-[({(7M)-6-cyclopropyl-4-[(1S,4S)-2,5-diazabicyclo[2.2.1]heptan-2-yl]-7-(6-fluoro-5-methyl-1H-indazol-4-yl)-2-[(2S)-2-methoxypropoxy]quinazolin-8-yl}oxy)methyl]benzoyl}-3-methylpiperazin-1-yl]methyl}-3-methyl-2-oxo-2,3-dihydro-1H-benzimidazol-1-yl)piperidine-2,6-dione] | 86 | 8 | 15
CO[C@@H](C)COc1cc(N2C[C@@H]3C[C@H]2CN3)c2cc(C3CC3)c(-c3c(C)c(F)cc4[nH]ncc34)c(OCc3ccc(C(=O)N4CCN(Cc5ccc6c(c5)n(C)c(=O)n6C5CCC(=O)NC5=O)C[C@@H]4C)cc3)c2n1 (stereo partly drawn) [Example 29, 3-(5-{[(3S)-4-{4-[({6-cyclopropyl-4-[(1S,4S)-2,5-diazabicyclo[2.2.1]heptan-2-yl]-7-(6-fluoro-5-methyl-1H-indazol-4-yl)-2-[(2S)-2-methoxypropoxy]quinolin-8-yl}oxy)methyl]benzoyl}-3-methylpiperazin-1-yl]methyl}-3-methyl-2-oxo-2,3-dihydro-1H-benzimidazol-1-yl)piperidine-2,6-dione] | 86 | 22 | 33
